Reference: patent US9907765B2, “Treatment of connective tissue diseases of the skin” (Cipher Pharmaceuticals, Inc., priority 2005, dated 2018)

What was measured:
[1] = tested on: patients suffering from discoid Lupus Erythematosus; experiment: Topical treatment of cutaneous manifestations in patients with discoid Lupus Erythematosus; type: in vivo, human; details: patient with Discoid Lupus Erythematosus, after 3 weeks treatment
From the text: (§1) Examples 2 to 5 concern the treatment of cutaneous manifestation in patients suffering from discoid Lupus Erythematosus or subacute Lupus Erythematosus with the topical composition of Example 1 under the control of a medical doctor of Bispebjerg Hospital, Denmark. The composition was applied to affected areas once or twice per day.
A person had been suffering from discoid Lupus Erythematosus for 18 years. Their arms were somewhat affected and the fingers were severely affected with acrocyanosis. During the years, the person had regularly been treated with strong topical steroids, but with limited effect.
During an aggravation of the disease, which especially affected the fingers, the person initiated a treatment with the emulsion according to example 1 on the fingers.
A person had been suffering from discoid Lupus Erythematosus for 6 years. The symptoms started on the chin, but had spread to most of the face.
During an aggravation of the symptoms, the subject initiated a twice daily treatment with the emulsion according to example 1.
A person had been suffering from discoid Lupus Erythematosus for 32 years. The disease was very severe with a strong affection of the arms and the back and with elements spread to other parts of the body. The person had been treated with ercoquin and strong topical corticosteroids, but with limited effect. […]

[2] = tested on: patients suffering from subacute Lupus Erythematosus; experiment: Topical treatment of cutaneous manifestations in patients with subacute Lupus Erythematosus; type: in vivo, human; details: patient with Sub-acute Cutaneous Lupus Erythematosus, after 8 weeks of treatment
From the text: as §1
A person had been suffering from subacute Lupus Erythematosus for 16 years. The subject was affected on large areas of the body with elements on the back, the breast and the face.
The person has previously been treated with oral prednisolone, chlorochin, thalidomide and strong topical steroids, but all with limited or no effect.
During an aggravation of the symptoms, the person initiated a twice daily treatment with the emulsion according to example 1.

[3] = tested on: Albino guinea pigs of Dunkin-Hartley strain; experiment: Skin sensitization test according to the Magnusson and Kligman method (O.E.C.D. Guideline No 406); type: in vivo, guinea pig
Protocol: Assessment of sensitising properties of R-salbutamol. Test for skin sensitization is carried out according to the Magnusson and Kligman method (J. Invest. Dermatol. 1969. 52, 268-276) and in accordance with O.E.C.D. Guideline No 406 of Jul. 17, 1992, and the test method B.6 of the 96/54 E.E.C Directive. The test item (R-salbutamol as the sulphate salt) was diluted with distilled water to prepare a concentration of 0.5% (w/v). Albino guinea pigs of Dunkin-Hartley strain were exposed to the test item after an acclimatisation period of at least five days. The Maximum Non Necrotizing Concentration (M.N.N.C.) was determined by injecting by intradermal route the following concentrations of the test item 0.25%, 0.125%, 0.0625%, 0.0312% and 0.0156% diluted in physiological saline solution. Pre-Maximum Non Irritant Concentration (pre-M.N.I.C.) was determined by application of the test item under an occlusive dressing during 24 hours, at the following concentrations: 0.5%, 0.25%, 0.125% and 0.0625% diluted in physiological saline solution. Maximum Non Irritant Concentration (M.N.I.C.) was determined by initially establishing an induction phase by intradermal injection with a physiological saline solution and by topical application of distilled water followed by a 18-day rest phase. […]

Row | Molecule | improvement of inflamed lesions [1] | remission of the cutaneous symptoms [2] | macroscopic cutaneous reactions attributable to allergy ([3]; challenge phase, after removal of 24 h occlusive dressing, induction with test item at 0.5%) | skin sensitization following topical application ([3]; topical application to skin)
1 | 1-[[(1,1-Dimethylethyl)amino]methyl]-4-hydroxy-1,3-benzenedimethanol [Salbutamol] | significant improvement | complete remission |  | 
2 | CC(C)(C)NC[C@H](O)c1ccc(O)c(CO)c1 [R-salbutamol] |  |  | No macroscopic cutaneous reactions attributable to allergy | does not confer skin sensitization
